Test: Stopped-flow water flux (Pf) in control liposomes, effect of mercurial reagents
Type: biochemical
Conditions: 1 mM mercurial
Procedure: Purified AQP1 was stored overnight at 0° C. or frozen for several days at -80° C. prior to reconstitution. Reconstitution into proteoliposomes was carried out in a final volume of 1 ml containing 60-90 μg of purified AQP 1 protein in chromatography buffer, 9 mg of bath-sonicated E. coli phospholipid, 1.25% (w/v) octyl glucoside, and 50 mM Tris-HCl (pH 7.5). The mixture was briefly blended on a vortex mixer and incubated for 20 minutes on ice. […] Protein and phospholipid were measured as described by Ambudkar & Maloney (J. Biol. Chem., 1986, 261:10079-10086).
Permeability measurements. Membrane permeability measurements (Pf) were measured by exposing AQP1 proteoliposomes or control liposomes to an osmotic gradient by rapid mixing with an equal volume of another solution containing buffer A plus sufficient sucrose to increase osmolality in the mixed solutions to a value 120% of that in the original solution. This was performed with a stopped-flow fluorometer (SF.17MV, Applied Photophysics, Leatherhead, U.K.) with a measured dead time of 0.7 ms. […] Extravesicular carboxyfluorescein fluorescence was completely quenched using anti-fluorescein antibody (Harris et al., 1990, Am. J. Physiol. 259:F366-F371). […]

[Cl][Hg][Cl] [HgCl2]
effect on the Pf of control liposomes: Neither pCMBS nor HgCl2 had any effect
